Entries after “also recorded” stand apart in the source; their conditions may differ.
Columns and labels:
[1] = system: experimental periodontitis model mice; experiment: bone regeneration in experimental periodontitis model mice (teeth ligated with silk threads); format: in vivo, mouse; details: 22-month-old aging mice; 20 mg/kg intraperitoneally once; 5 days regeneration period
Text: Experimental periodontitis model mice in which teeth are ligated with silk threads are useful models for inflammatory bone destruction research because inflammations and bone resorption occur in about 10 days after the ligation. The above-described experimental periodontitis models were produced by using 6-week-old wild-type mice (N=8, male C57BL/6N mice, manufactured by CLEA Japan, Inc.), 22-month-old aging mice (N=4, male C57BL/6N mice, manufactured by CLEA Japan, Inc.), and 6-week-old DEL-1-deficient mice (N=8, male C57BL/6N mice (manufactured by CLEA Japan, Inc.), a method for producing the deficient mice was as described in Non Patent Document 1), the silk threads were removed 10 days after the ligation, a remission phase of inflammation of 5 days passed, and in the wild-type mice, new bone formation was recognized at the site of resorbed bone defect while no repair mechanism of the periodontal tissue by DEL-1 was recognized.
The experimental periodontitis models described in Example 1 were produced by using 6-week-old wild-type mice (N=8, male C57BL/6N mice, manufactured by CLEA Japan, Inc.), 22-month-old aging mice (N=4, male C57BL/6N mice, manufactured by CLEA Japan, Inc.), and 6-week-old DEL-1-deficient mice (N=8, male C57BL/6N mice (manufactured by CLEA Japan, Inc.), a method for producing the deficient mice was as described in Non Patent Document 1), the silk threads were removed 10 days after the ligation to experimentally induce periodontitis, subsequently a bone regeneration period of 5 days was provided, and then the amount of regeneration of resorbed bone was measured using a stereomicroscope and image measurement software (manufactured by Nikon Corporation). Erythromycin (10 mg/kg) and ethanol (final concentration 0.1% by mass) were intraperitoneally administered once after the removal of the silk threads. In addition, DEL-1 (1 μg) and Fc control (0.84 μg) were directly inoculated into the gingiva after the removal of the silk threads. The results are shown in FIG. 3 (left: wild-type mice, right: DEL-1-deficient mice) and FIG. 4 (aging mice).
Next, the experimental periodontitis model described in Example 1 was produced by using 22-month-old aging mice (N=4, male C57BL/6N mouse, manufactured by CLEA Japan, Inc.), the silk threads were removed 10 days after the ligation to experimentally induce periodontitis, subsequently a bone regeneration period of 5 days was provided, and the amount of regeneration of resorbed bone was measured using a stereomicroscope and image measurement software (manufactured by Nikon Corporation). Erythromycin (ERM) (20 mg/kg), azithromycin (AZM) (20 mg/kg), clarithromycin (CLM) (20 mg/kg), and ethanol (final concentration 0.1% by mass) as a control were intraperitoneally administered once after the removal of the silk threads. […] In addition, there was no difference in the amount of bone regeneration between the macrolide antimicrobial agent-administered groups.

osteoblasts = experiment: bone nodule measurement in osteoblasts (Alizarin red S); format: cell-based, mouse; details: osteoblasts derived from wild-type mice; 10 μg/mL each; 15 days
Method: Next, from the cranial bones of 3-day-old wild-type mice (N=6, male C57BL/6N mice, manufactured by CLEA Japan, Inc.) and 3-day-old DEL-1-deficient mice (N=6, male C57BL/6N mice (manufactured by CLEA Japan, Inc.), a method for producing the deficient mice was as described in Non Patent Document 1), osteoblasts were isolated by allowing 0.1% by mass of type 1 collagenase and 0.2% by mass of dispase to act at 37° C. for 20 minutes, and the cells were cultured in α-MEM and a bone differentiation medium (containing 50 μg/ml ascorbic acid and 10 mM β-glycerol 2-phosphate). Ethanol (final concentration 0.1% by mass) and erythromycin (10 μg/mL) were added into the medium in which the osteoblasts (1×10^4 cells/mL) derived from the wild-type mice or the DEL-1-deficient mice were cultured. The medium was exchanged every 3 days, and after 15 days, the cells were stained with Alizarin red S, followed by performing of bone nodule measurement.
Next, the proportion (%) of bone nodules with respect to the observation region in the above-described osteoblasts was calculated from microscopic images by using image processing software (NIH Image). In addition, RNA was extracted from each of the osteoblasts by using an RNeasy Kit (manufactured by QIAGEN NV), subsequently cDNA was synthesized by using a cDNA synthesis kit (manufactured by Thermo Fisher Scientific, Inc.), and the relative expression levels of RUNX2 mRNA, Sp7 mRNA, and Bglap mRNA, which are important for bone regeneration, were checked by an RT-PCR method (Quantstudio3, Thermo Fisher Scientific, Inc.). Regarding primers, designed primers manufactured by Thermo Fisher Scientific, Inc. were used. The Assay IDs of the primers used are shown below.
(Bone regeneration-inducing effect 2 by various macrolide antimicrobial agents) From the cranial bones of 3-day-old wild-type mice (N=6, male C57BL/6N mice, manufactured by CLEA Japan, Inc.), osteoblasts were isolated by allowing 0.1% by mass of type 1 collagenase and 0.2% by mass of dispase to act at 37° C. for 20 minutes, and the cells were cultured in α-MEM and a bone differentiation medium (containing 50 μg/ml ascorbic acid and 10 mM β-glycerol 2-phosphate). Ethanol (final concentration 0.1% by mass), or erythromycin, clarithromycin, or azithromycin (10 μg/mL each) was added into the medium in which the osteoblasts (1×10^4 cells/mL) derived from the wild-type mice were cultured. The medium was exchanged every 3 days, and after 15 days, the cells were stained with Alizarin red S, followed by performing of bone nodule measurement. The results are shown in FIG. 11 In FIG. 11, the symbol * indicates p<0.05, and the symbol ** indicates p<0.01. In addition, the control is an ethanol (final concentration 0.1% by mass)-added group.

[2] = system: bone defects in the jawbones; experiment: jawbone defect regeneration in cynomolgus monkeys (microCT); format: in vivo; details: 200 μg at bone defect site, one month
Method: Bone defects with a diameter of 2 cm and a depth of 2 cm were artificially produced in the jawbones of young (2 years old) and aged (10 years old) cynomolgus monkeys by using a round steel bar. Next, 200 μg of each of erythromycin, clarithromycin, and azithromycin were added to the bone defect sites. As controls, a non-administered group and a group administered with 200 μg of REGROTH (registered trademark), which has been approved as a bone regenerative agent, were also prepared. The amount of bone regeneration after one month from the administration of each drug was checked by using microCT. In FIG. 10, the symbol * indicates p<0.01.

[3] = system: iCell mesenchymal stem cells; experiment: bone nodule measurement in mesenchymal stem cells induced from human iPS cells; format: cell-based; details: 10 μg/mL for each; 15 days; bone differentiation medium
Method: iCell (registered trademark) mesenchymal stem cells (iCell (registered trademark) MSCs) (#01279, manufactured by Fujifilm Corporation) (1×10^4 cells/mL) obtained by inducing human mesenchymal stem cells from iPS cells, were cultured in α-MEM and a bone differentiation medium (containing 50 μg/mL ascorbic acid and 10 mM β-glycerol 2-phosphate). Ethanol (final concentration 0.1% by mass), or erythromycin, clarithromycin, or azithromycin (10 μg/mL for each) was added to the medium. The medium was exchanged every 3 days, and after 15 days, the cells were stained with Alizarin red S, followed by performing of bone nodule measurement. The results are shown in FIG. 18 (stained images) and FIG. 19 (graph showing the proportion of bone nodules). In FIG. 18 and FIG. 19, the ethanol (final concentration 0.1% by mass)-added group is a control. In FIG. 19, the symbol * indicates p≤0.05, the symbol ** indicates p≤0.01, the symbol *** indicates p≤0.001, and the symbol **** indicates p≤0.0001.

[4] = aged (10 years old) cynomolgus monkeys
[5] = young (2 years old) cynomolgus monkeys

SMILES	bone regeneration (FIG. 9) [1]	formation of bone nodules (FIG. 11) (osteoblasts)	bone regeneration effect (FIG. 10) [2, 4]	bone regeneration effect (FIG. 10) [2, 5]	formation of bone nodules (FIG. 18, FIG. 19) [3]
CC[C@H]1OC(=O)[C@H](C)[C@@H](O[C@H]2C[C@@](C)(OC)[C@@H](O)[C@H](C)O2)[C@H](C)[C@@H](O[C@@H]2O[C@H](C)C[C@H](N(C)C)[C@H]2O)[C@](C)(OC)C[C@@H](C)C(=O)[C@H](C)[C@@H](O)[C@]1(C)O [clarithromycin]	bone regeneration was recognized	the formation of bone nodules was recognized	a bone regeneration effect was recognized	a bone regeneration effect was recognized	the formation of bone nodules was recognized
CC[C@H]1OC(=O)[C@H](C)[C@@H](O[C@H]2C[C@@](C)(OC)[C@@H](O)[C@H](C)O2)[C@H](C)[C@@H](O[C@@H]2O[C@H](C)C[C@H](N(C)C)[C@H]2O)[C@](C)(O)C[C@@H](C)CN(C)[C@H](C)[C@@H](O)[C@]1(C)O [azithromycin]	bone regeneration was recognized	the formation of bone nodules was recognized; also recorded: particularly favorable	a bone regeneration effect was recognized	a bone regeneration effect was recognized	the formation of bone nodules was recognized
